Measurements from patent US8952033B2, “4-anilinofuro[2,3-b]quinoline derivatives, their preparation processes, and pharmaceutical compositions comprising the same” (Kaohsiung Medical University, priority 2011, dated 2015).

Tests used:
[1] = system: MCF-7 (breast cancer cell); assay: MTT antiproliferative assay (cell growth %, GI50), MCF-7; type: cell-based; settings: Homo sapiens, MCF7, 48 hours, MTT; for activity at 4000 µg/mL: 4 mg/ml; for activity at 20000 µg/mL: 20 mg/ml
Procedure: (§1) Antiproliferative activities of the compounds of this invention were evaluated substantially according to the method as described in Tseng, C. […] The cells were treated with the test compounds, i.e., the compounds of this invention (in dimethylsulfoxide (DMSO)), or DMSO for 48 hours.
(§2) Before and after the treatment with the test compounds or DMSO, 3-(4,5-dimethylthiazol-2-yl)-2,5-diphenyltetrazolium bromide (MTT, 2 mg/mL, 100 μL) was added to each of the cultures, followed by cultivation for 2 hours. The resultant formazan was dissolved by the addition of DMSO. Absorbance at 570 nm (OD570) was measured using a microtiter plate reader (Dynex MRX-II).
(§3) Determination of GI50 was conducted thrice for each test compound. GI50 is expressed as mean±SD.

[2] = system: NCI-H460 (non-small cell lung carcinoma cell); assay: MTT antiproliferative assay (cell growth %, GI50), NCI-H460; type: cell-based; settings: Homo sapiens, NCI-H460, 48 hours, MTT; for activity at 4000 µg/mL: 4 mg/ml; for activity at 20000 µg/mL: 20 mg/ml
Procedure: as §1, §2, §3

Row | Compound | activity at 4000 µg/mL [1] [%] | activity at 20000 µg/mL [1] [%] | activity at 4000 µg/mL [2] [%] | activity at 20000 µg/mL [2] [%]
1 | C/C(=N\OCCN(C)C)c1ccc(Nc2c3ccccc3nc3occc23)cc1 [Compound 13b, (E)-1-(4-(Furo[2,3-b]quinolin-4-ylamino)phenyl)ethanone O-2-(dimethylamino)ethyl oxime] | 59 | 0 | 94 | 0
2 | C/C(=N\OCCCN(C)C)c1ccc(Nc2c3ccccc3nc3occc23)cc1 [Compound 13d, (E)-1-(4-(Furo[2,3-b]quinolin-4-ylamino)phenyl)ethanone O-3-(dimethylamino)propyl oxime] | 84 | 22 | 52 | 7
3 | C/C(=N\OCCN1CCCC1)c1ccc(Nc2c3ccccc3nc3occc23)cc1 [Compound 13e, (E)-1-(4-(Furo[2,3-b]quinolin-4-ylamino)phenyl)ethanone O-2-(pyrrolidin-1-yl)ethyl oxime] | 64 | 6 | 54 | 1
4 | C/C(=N\OCCN1CCCCC1)c1ccc(Nc2c3ccccc3nc3occc23)cc1 [Compound 13f, (E)-1-(4-(Furo[2,3-b]quinolin-4-ylamino)phenyl)ethanone O-2-(piperidin-1-yl)ethyl oxime] | 114 | 3 | 99 | -1
5 | C/C(=N\OCCN1CCOCC1)c1ccc(Nc2c3ccccc3nc3occc23)cc1 [Compound 13g, (E)-1-(4-(Furo[2,3-b]quinolin-4-ylamino)phenyl)ethanone O-2-morpholinoethyl oxime] | 120 | 56 | 108 | 23
6 | C/C(=N\OCCCCN1CCOCC1)c1ccc(Nc2c3ccccc3nc3occc23)cc1 [Compound 13h, (E)-1-(4-(Furo[2,3-b]quinolin-4-ylamino)phenyl)ethanone O-4-morpholinobutyl oxime] | 76 | -2 | 118 | -1
7 | C/C(=N\OCCN(C)C)c1ccc(Nc2c3ccccc3nc3occ(Cl)c23)cc1 [Compound 14b, (E)-1-(4-(3-Chlorofuro[2,3-b]quinolin-4-ylamino)phenyl)ethanone O-2-(dimethylamino)ethyl oxime] | 70 | -3 | 68 | -1
8 | C/C(=N\OCCCN(C)C)c1ccc(Nc2c3ccccc3nc3occ(Cl)c23)cc1 [Compound 14d, (E)-1-(4-(3-Chlorofuro[2,3-b]quinolin-4-ylamino)phenyl)ethanone O-3-(dimethylamino)propyl oxime] | 61 | 1 | 52 | 1
9 | C/C(=N\OCCN1CCCC1)c1ccc(Nc2c3ccccc3nc3occ(Cl)c23)cc1 [Compound 14e, (E)-1-(4-(3-Chlorofuro[2,3-b]quinolin-4-ylamino)phenyl)ethanone O-2-(pyrrolidin-1-yl)ethyl oxime] | 86 | -2 | 69 | -1
10 | C/C(=N\OCCN1CCCCC1)c1ccc(Nc2c3ccccc3nc3occ(Cl)c23)cc1 [Compound 14f, (E)-1-(4-(3-Chlorofuro[2,3-b]quinolin-4-ylamino)phenyl)ethanone O-2-(piperidin-1-yl)ethyl oxime] | 121 | 26 | 101 | 3
11 | C/C(=N\OCCN1CCOCC1)c1ccc(Nc2c3ccccc3nc3occ(Cl)c23)cc1 [Compound 14g, (E)-1-(4-(3-Chlorofuro[2,3-b]quinolin-4-ylamino)phenyl)ethanone O-2-morpholinoethyl oxime] | 112 | 54 | 107 | 16
